Measured values published in patent US20260365670A1, “EGFR INHIBITORS AND USES THEREOF” (DIZAL (JIANGSU) PHARMACEUTICAL CO., LTD., priority 2022, published 2026).
Like-named read-outs stand apart in the source and are kept apart here.

How the values were obtained:
[1] = tested on: A-431; test: Cell proliferation GI50, A-431 cells (Table 6); format: cell-based; conditions: Homo sapiens, A-431, A-431 cells
[2] = target: T1, EGFR L858R/T790M (Homo sapiens, UniProt P00533, L858R/T790M); test: Inhibition of EGFR L858R/T790M biochemical enzymatic activity (HTRF); conditions: EGFR L858R-T790M, 1 mM ATP, 1 h, room temperature, read-out: IC50 (nM) @L858R-T790M
T1 construct: purchased Carna Bio
Summary of the method: (§1)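 Read-out is the HTRF 665/615 nm ratio (excitation 320 nm), taken as proportional to kinase activity after a 1 h room-temperature reaction with 1 mM ATP and 1 μM biotinylated TK substrate. IC50 values derive from four-parameter logistic fitting.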

[3] = target: T2, EGFR (C797S L858R) (Homo sapiens, UniProt P00533, C797S/L858R); test: Inhibition of EGFR (C797S L858R) biochemical enzymatic activity (HTRF); conditions: EGFR L858-C797S, 1 mM ATP, 1 h, room temperature, read-out: IC50 (nM) @L858-C797S
T2 construct: purchased signalchem
T2 sequence (P00533 25-1210 C797S/L858R): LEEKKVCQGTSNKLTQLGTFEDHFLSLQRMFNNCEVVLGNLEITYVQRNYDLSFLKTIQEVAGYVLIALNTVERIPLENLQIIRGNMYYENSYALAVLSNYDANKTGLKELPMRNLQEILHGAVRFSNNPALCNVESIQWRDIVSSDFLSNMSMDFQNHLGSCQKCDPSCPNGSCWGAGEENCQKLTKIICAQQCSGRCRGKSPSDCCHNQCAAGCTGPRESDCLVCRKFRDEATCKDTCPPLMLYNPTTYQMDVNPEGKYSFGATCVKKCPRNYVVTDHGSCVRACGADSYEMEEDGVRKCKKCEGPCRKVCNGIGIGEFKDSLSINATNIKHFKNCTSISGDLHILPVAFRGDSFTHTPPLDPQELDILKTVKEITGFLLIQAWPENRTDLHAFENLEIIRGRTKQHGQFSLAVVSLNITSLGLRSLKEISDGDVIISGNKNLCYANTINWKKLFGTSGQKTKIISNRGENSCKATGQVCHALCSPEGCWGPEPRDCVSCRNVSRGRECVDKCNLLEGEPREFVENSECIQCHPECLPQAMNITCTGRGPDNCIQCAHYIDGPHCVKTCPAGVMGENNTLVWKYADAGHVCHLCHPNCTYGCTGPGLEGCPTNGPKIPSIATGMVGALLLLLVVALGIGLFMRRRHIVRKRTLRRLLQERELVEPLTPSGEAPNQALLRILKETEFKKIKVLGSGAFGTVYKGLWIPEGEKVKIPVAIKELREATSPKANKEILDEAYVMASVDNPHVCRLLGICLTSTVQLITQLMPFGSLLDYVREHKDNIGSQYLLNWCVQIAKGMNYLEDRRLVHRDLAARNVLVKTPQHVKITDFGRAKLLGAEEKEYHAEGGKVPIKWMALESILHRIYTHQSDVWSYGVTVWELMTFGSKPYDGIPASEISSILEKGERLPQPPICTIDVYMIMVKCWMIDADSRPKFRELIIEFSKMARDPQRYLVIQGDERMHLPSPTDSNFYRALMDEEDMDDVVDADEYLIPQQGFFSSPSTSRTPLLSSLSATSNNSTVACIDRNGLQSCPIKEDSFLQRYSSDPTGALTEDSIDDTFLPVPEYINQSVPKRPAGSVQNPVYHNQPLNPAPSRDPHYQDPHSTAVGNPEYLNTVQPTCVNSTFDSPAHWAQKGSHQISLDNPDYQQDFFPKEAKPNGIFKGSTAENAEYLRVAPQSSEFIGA
Summary of the method: as §1

[4] = target: T3, EGFR[T790M/C797S/d746-750] (Homo sapiens, UniProt P00533, C797S/DEL746-750/T790M); test: Inhibition of EGFR[T790M/C797S/d746-750] biochemical enzymatic activity (HTRF); conditions: EGFR T790M-C797S-Del19, 1 mM ATP, 1 h, room temperature, read-out: IC50 (nM) @T790M - C797S - Del19
T3 construct: purchased Carna Bio
T3 sequence (P00533 with tags, fused parts or gaps DEL746-750/T790M/C797S limits assumed): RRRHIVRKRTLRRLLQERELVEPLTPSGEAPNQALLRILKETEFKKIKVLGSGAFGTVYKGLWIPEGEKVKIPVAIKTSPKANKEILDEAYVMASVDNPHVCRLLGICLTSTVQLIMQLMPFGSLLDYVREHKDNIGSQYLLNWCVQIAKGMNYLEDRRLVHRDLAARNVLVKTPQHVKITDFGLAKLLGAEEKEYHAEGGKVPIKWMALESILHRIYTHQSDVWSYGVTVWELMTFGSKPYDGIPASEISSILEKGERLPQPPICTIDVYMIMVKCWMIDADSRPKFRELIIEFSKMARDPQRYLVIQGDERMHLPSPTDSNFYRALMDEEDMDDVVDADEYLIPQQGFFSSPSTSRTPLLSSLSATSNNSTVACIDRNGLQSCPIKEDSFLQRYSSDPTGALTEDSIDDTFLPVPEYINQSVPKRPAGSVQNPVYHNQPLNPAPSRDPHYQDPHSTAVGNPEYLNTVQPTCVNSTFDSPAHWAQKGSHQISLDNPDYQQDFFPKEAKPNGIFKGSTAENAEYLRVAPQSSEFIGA
Summary of the method: as §1

[5] = target: T4, EGFR Exon19Del (Homo sapiens, UniProt P00533, DEL746-750); test: Inhibition of EGFR Exon19Del biochemical enzymatic activity (HTRF); conditions: EGFR Del19, 1 mM ATP, 1 h, room temperature, read-out: IC50 @Del19
T4 construct: purchased Carna Bio
T4 sequence (P00533 with tags, fused parts or gaps DEL746-750 limits assumed): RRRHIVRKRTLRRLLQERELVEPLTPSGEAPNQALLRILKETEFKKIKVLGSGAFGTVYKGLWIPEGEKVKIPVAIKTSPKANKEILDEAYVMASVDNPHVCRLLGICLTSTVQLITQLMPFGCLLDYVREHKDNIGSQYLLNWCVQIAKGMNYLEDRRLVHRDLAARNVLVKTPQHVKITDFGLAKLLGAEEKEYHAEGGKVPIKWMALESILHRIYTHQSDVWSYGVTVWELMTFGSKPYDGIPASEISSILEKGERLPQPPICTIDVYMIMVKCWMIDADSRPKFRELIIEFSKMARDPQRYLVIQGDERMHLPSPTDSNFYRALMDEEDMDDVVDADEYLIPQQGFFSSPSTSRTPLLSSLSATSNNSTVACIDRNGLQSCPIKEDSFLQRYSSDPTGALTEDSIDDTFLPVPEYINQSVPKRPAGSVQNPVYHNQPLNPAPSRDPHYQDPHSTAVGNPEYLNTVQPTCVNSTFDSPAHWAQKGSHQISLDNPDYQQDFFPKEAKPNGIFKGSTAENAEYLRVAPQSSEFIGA
Summary of the method: as §1

[6] = target: T5, EGFR (d746-750 C797S) (Homo sapiens, UniProt P00533, C797S/DEL746-750); test: Inhibition of EGFR (d746-750 C797S) biochemical enzymatic activity (HTRF); conditions: EGFR Del19-C797S, 1 mM ATP, 1 h, room temperature, read-out: IC50 (nM) @Del19-C797S
T5 construct: purchased signalchem
T5 sequence (P00533 with tags, fused parts or gaps DEL746-750/C797S limits assumed): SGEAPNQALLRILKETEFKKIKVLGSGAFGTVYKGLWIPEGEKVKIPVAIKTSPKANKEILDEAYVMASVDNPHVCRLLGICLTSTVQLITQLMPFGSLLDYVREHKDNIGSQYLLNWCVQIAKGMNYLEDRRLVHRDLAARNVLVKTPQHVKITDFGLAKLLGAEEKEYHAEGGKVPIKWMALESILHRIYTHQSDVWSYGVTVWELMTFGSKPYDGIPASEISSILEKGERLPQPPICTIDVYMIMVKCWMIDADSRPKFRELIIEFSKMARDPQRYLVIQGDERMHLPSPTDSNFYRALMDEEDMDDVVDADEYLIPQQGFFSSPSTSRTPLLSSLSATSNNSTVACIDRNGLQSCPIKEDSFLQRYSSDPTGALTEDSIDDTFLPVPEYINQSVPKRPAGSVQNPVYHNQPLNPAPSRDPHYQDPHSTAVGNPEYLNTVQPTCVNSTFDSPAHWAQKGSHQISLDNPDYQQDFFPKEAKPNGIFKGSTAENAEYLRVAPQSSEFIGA
Summary of the method: as §1

[7] = tested on: PC-9; test: Cell proliferation assay, PC-9 cells (CellTiter-Glo, 72 hours); format: cell-based; conditions: Homo sapiens, PC-9, 72 h, PC9 cells, CellTiter-Glo, read-out: PC9 GI50
Summary of the method: (§2)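 Ba/F3 cells (5000/well) and PC-9 cells (500/well, RPMI1640 with 10% FBS) were plated overnight and then dosed with a compound concentration series. Viable cells were read at day 0 (G0) and after treatment (G3). GI50 came from curve fits of G0-corrected proliferation relative to DMSO.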

[8] = tested on: Ba/F3 cells expressing EGFR mutations; test: Cell proliferation assay, Ba/F3 cells expressing EGFR mutations (CellTiter-Glo, 72 hours); format: cell-based; conditions: Mus musculus, BaF3, 72 h, CellTiter-Glo
Summary of the method: as §2

[9] = target: T6, EGFR L858R (Homo sapiens, UniProt P00533, L858R); test: Inhibition of EGFR L858R biochemical enzymatic activity (HTRF); conditions: 1 mM ATP, 1 h, room temperature, read-out: IC50 (nM) @L858R
T6 construct: purchased Carna Bio
T6 sequence (P00533 25-1210 L858R): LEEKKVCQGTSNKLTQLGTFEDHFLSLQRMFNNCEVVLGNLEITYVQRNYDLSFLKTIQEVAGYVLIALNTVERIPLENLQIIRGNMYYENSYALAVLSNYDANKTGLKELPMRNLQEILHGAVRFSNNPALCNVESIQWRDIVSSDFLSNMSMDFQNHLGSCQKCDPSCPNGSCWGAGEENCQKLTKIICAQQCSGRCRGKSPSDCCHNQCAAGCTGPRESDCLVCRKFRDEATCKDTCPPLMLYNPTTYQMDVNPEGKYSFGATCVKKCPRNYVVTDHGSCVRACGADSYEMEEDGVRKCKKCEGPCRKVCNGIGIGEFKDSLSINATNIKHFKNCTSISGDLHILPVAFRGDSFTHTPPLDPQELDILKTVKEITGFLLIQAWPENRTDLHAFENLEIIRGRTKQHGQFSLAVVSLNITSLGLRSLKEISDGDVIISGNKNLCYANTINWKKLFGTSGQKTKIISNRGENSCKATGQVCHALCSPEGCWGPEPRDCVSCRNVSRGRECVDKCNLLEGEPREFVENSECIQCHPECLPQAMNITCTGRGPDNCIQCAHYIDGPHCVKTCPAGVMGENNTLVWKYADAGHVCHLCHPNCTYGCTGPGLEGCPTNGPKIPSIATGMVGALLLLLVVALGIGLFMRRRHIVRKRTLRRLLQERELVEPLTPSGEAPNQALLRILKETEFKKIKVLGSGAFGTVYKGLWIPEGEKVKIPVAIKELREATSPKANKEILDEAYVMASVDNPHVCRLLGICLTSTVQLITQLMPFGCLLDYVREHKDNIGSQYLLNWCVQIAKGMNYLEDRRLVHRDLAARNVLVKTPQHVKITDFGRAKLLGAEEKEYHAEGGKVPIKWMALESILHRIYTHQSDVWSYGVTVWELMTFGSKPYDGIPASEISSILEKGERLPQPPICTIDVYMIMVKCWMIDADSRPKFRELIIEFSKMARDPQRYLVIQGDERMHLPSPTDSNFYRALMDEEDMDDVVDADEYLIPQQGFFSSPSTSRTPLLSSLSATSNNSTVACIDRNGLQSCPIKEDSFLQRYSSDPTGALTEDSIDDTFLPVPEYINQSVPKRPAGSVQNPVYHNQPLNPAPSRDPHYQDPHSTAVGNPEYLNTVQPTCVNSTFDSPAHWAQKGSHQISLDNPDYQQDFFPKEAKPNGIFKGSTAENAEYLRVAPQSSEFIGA
Summary of the method: as §1

[10] = target: T7, EGFR wild type (Homo sapiens, UniProt P00533); test: Inhibition of EGFR wild type biochemical enzymatic activity (HTRF); conditions: EGFR WT, 1 mM ATP, 1 h, room temperature, read-out: IC50 (nM) @WT
T7 construct: purchased Carna Bio
Summary of the method: as §1

[11] = target: T8, EGFR[T790M/C797S/L858R] (Homo sapiens, UniProt P00533, C797S/L858R/T790M); test: Inhibition of EGFR[T790M/C797S/L858R] biochemical enzymatic activity (HTRF); conditions: EGFR T790M-C797S-L858R, 1 mM ATP, 1 h, room temperature, read-out: IC50 (nM) @T790M- C797S - L858R
T8 construct: purchased Carna Bio
Summary of the method: as §1

[12] = target: T9, EGFR Exon19Del/T790M (Homo sapiens, UniProt P00533, DEL746-750/T790M); test: Inhibition of EGFR Exon19Del/T790M biochemical enzymatic activity (HTRF); conditions: EGFR Del19-T790M, 1 mM ATP, 1 h, room temperature, read-out: IC50 (nM) @Del19-T790M
T9 construct: purchased Carna Bio
T9 sequence (P00533 with tags, fused parts or gaps DEL746-750/T790M limits assumed): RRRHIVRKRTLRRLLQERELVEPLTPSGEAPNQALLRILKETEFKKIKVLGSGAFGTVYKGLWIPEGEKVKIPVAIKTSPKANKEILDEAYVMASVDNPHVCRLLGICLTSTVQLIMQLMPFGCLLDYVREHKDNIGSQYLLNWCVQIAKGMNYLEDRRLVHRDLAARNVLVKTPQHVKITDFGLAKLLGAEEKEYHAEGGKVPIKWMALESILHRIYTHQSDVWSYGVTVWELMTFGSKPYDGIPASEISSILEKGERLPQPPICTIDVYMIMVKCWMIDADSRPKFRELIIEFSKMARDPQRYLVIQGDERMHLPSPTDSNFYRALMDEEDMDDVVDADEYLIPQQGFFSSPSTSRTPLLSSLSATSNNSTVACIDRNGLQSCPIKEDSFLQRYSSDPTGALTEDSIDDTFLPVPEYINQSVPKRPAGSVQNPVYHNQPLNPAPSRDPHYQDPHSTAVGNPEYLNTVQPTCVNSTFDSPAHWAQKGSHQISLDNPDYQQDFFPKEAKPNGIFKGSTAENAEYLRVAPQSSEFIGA
Summary of the method: as §1

[13] = BaF3 cells, EGFR DEL19-C797S, read-out: DEL19-C797S/BaF3 GI50
[14] = BaF3 cells, EGFR DEL19-T790-C797S, read-out: DEL19-T790-C797S/BaF3 GI50
[15] = BaF3 cells, EGFR L858R, read-out: L858R/BaF3 GI50
[16] = BaF3 cells, EGFR L858R-C797S, read-out: L858R-C797S/BaF3 GI50
[17] = BaF3 cells, EGFR L858R-T790-C797S, read-out: L858R-T790-C797S/BaF3 GI50
[18] = BaF3 cells, EGFR L858R-T790M, read-out: L858R-T790M/BaF3 GI50
[19] = EGFR DEL19-T790M, read-out: DEL19-T790M GI50

SMILES | GI50 [1] [nM] | IC50 [2] [nM] | IC50 [3] [nM] | IC50 [4] [nM] | IC50 [5] [nM] | IC50 [6] [nM] | GI50 [7] [nM] | GI50 [8, 13] [nM] | GI50 [8, 14] [nM] | GI50 [8, 15] [nM] | GI50 [8, 16] [nM] | GI50 [8, 17] [nM] | GI50 [8, 18] [nM] | GI50 [8, 19] [nM] | IC50 [9] [nM] | IC50 [10] [nM] | IC50 [11] [nM] | IC50 [12] [nM]
Cn1ncc2c1OCCN1CC3CCC(CC3)(C1)n1c(nc3ccccc31)NC(=O)c1cc-2c(=O)n(C)c1 [Example A100, 15,21-Dimethyl-23-oxa-2,9,11,15,20,21,26-heptaazaheptacyclo[26.2.2.1^{1,26}.1^{13,17}.0^{2,10}.0^{3,8}.0^{18,22}]tetratriaconta-3,5,7,9,13,17(34),18(22),19-octaene-12,16-dione] | 6000 | 3520 | 1760 | 26 | 97 | 120 | 144 | 27 | 56 | 142 | 160 | 129 | 535 | 78 | 2500 | > 5000 | 2950 | 25
C[C@@H]1CCCOc2c(cnn2C)-c2cc(cn(C)c2=O)C(=O)Nc2nc3ccc(N4CCN(C)CC4)c(Cl)c3n2C1 [Example A101, (11R)-15-Chloro-5,11,26-trimethyl-16-(4-methylpiperazin-1-yl)-7-oxa-4,5,13,20,22,26-hexaazapentacyclo[22.3.1.0^{2,6}.0^{13,21}.0^{14,19}]octacosa-1(28),2(6),3,14,16,18,20,24-octaene-23,27-dione] | 1410 | 7.4 | 47 | 1.8 | 3.5 | 2.3 | 128 | 8.1 | 58 | 68 | 31 | 57 | 260 | 92 | 212 | > 5000 | 3.2 | 2.3
C[C@@H]1CCCOc2c(cnn2C)-c2cc(cn(C)c2=O)C(=O)Nc2nc3ccc4c(c3n2C1)CCNC4 [Example A102, (11R)-5,11,30-Trimethyl-7-oxa-4,5,13,18,24,26,30-heptaazahexacyclo[26.3.1.0^{2,6}.0^{13,25}.0^{14,23}.0^{15,20}]dotriaconta-1(32),2(6),3,14,20,22,24,28-octaene-27,31-dione] | 2910 | 195 | 167 | 3.4 | 18 | 12 | 115 | 12 | 31 | 79 | 61 | 37 | 307 | 59 | 414 | > 5000 | 32 | 5.7
C[C@@H]1CCCOc2c(cnn2C)-c2cc(cn(C)c2=O)C(=O)Nc2nc3ccc4c(c3n2C1)CCN(C)C4 [Example A103, (11R)-5,11,18,30-tetramethyl-7-oxa-4,5,13,18,24,26,30-heptaazahexacyclo[26.3.1.0^{2,6}.0^{13,25}.0^{14,23}.0^{15,20}]dotriaconta-1(32),2(6),3,14,20,22,24,28-octaene-27,31-dione] | 1680 | 65 | 68 | 1.3 | 7.4 | 5.4 | 32 | 2.7 | 7 | 26 | 17 | 10 | 72 | 18 | 168 | > 5000 | 20 | 1.8
C[C@@H]1CCCOc2c(cnn2C)-c2cc(cn(C)c2=O)C(=O)Nc2nc3ccc(Br)cc3n2C1 [Example M3, (11R)-16-Bromo-5,11,26-trimethyl-7-oxa-4,5,13,20,22,26-hexaazapentacyclo[22.3.1.0^{2,6}.0^{13,21}.0^{14,19}]octacosa-1(28),2(6),3,14,16,18,20,24-octaene-23,27-dione] | 1950 | 2190 | 1700 | 19 | 204 | 60 | 252 | 89 | 364 | 257 | 344 | 159 | 982 | 300 | 2460 | > 5000 | 2470 | 27
